From patent publication US20220370418A1, “PHARMACEUTICAL COMBINATIONS COMPRISING A FURAZANOBENZIMIDAZOLES AND A CD40 AGONIST FOR USE IN THE TREATMENT OF NEOPLASTIC DISEASES” (Basilea Pharmaceutica International AG, priority 2019, published 2022)

Legend:
[1] = cited from earlier work
GL261 glioma = assay: Survival in syngeneic orthotopic highly invasive GL261 glioma mouse model; format: in vivo, C57BL/6 mice
SB28 glioma [2] = assay: Survival in syngeneic orthotopic SB28 glioma mouse model; format: in vivo, C57BL/6 mice
SB28 glioma [3] = assay: Survival in syngeneic orthotopic SB28 glioma model in T- and B-cell deficient RAG1 knockout mice; format: in vivo, C57BL/6 RAG1 knockout mice
[4] = twenty-nine patients, doses from 0.01 to 0.3 mg/kg; cited from earlier work
[5] = Log-rank (Mantel-Cox) analysis, n=8-10 mice per group

N#CCCNc1nonc1-c1nc2ccccc2n1CC(=O)c1ccc(NC(=O)[C@@H](N)CCCCN)cc1 [BAL101553, (S)-2,6-Diamino-hexanoic acid [4-(2-{2-[4-(2-cyano-ethylamino)-furazan-3-yl]-benzoimidazol-1-yl}-acetyl)-phenyl]-amide]
water solubility (in words) [1]: highly water-soluble | median survival increase versus control (GL261 glioma; GL261 intra-cranial, C57BL/6 mice, same treatment schedule as Examples 1 and 2): 18% | survival of GL261 glioma bearing mice (in words, FIG. 3) (GL261 glioma; Log-rank (Mantel-Cox) analysis, n=10 mice per group): do not show any significant prolongation of survival | median survival increase, less than measured in the combination regimen (GL261 glioma; single agent versus combination, GL261, C57BL/6 mice): 25% | survival of SB28 glioma bearing mice (in words, FIG. 1) (SB28 glioma [2]; [5]): statistically significant but smaller survival benefit than the combined regimen | median survival increase versus control (SB28 glioma [2]; SB28 intra-cranial, C57BL/6 mice, BAL101553 25 mg/kg orally daily day 5-9, 12-16, 19-23, 26-30, anti-CD40 antibody 100 μg per animal IP days 7, 12, 16): 55% | median survival increase, less than in the combination regimen (SB28 glioma [2]; single agent versus combination, SB28, C57BL/6 mice): 26% | survival of SB28 glioma bearing immunodeficient (RAG1 KO) mice (in words, FIG. 2) (SB28 glioma [3]; [5]): statistically significant, but smaller survival benefit than the combined regimen | median survival increase versus control (SB28 glioma [3]; SB28 intra-cranial, RAG1 KO mice, same treatment schedule as Example 1): 33% | median survival increase, less than measured in the combination regimen (SB28 glioma [3]; single agent versus combination, SB28, RAG1 KO mice): 23%

CP-870,893: fully human IgG2 agonistic CD40 antibody developed by Pfizer
maximum tolerated dose (MTD) [4]: 0.2 mg/kg
